Measurements reported in ChEMBL document CHEMBL1201862, “PubChem BioAssay data set” (2004).
Activity calls are given as the source filed them.

How the values were obtained:
[1] = biological target: Intestinal-type alkaline phosphatase (Mus musculus, UniProt P24822); experiment: PubChem AID 488785; assay type: functional
[2] = biological target: Intestinal-type alkaline phosphatase (Homo sapiens, UniProt P09923); experiment: inhibition of human intestinal alkaline phosphatase – biochemical, dose response (AID 488876); assay type: functional
Chain of Intestinal-type alkaline phosphatase (Homo sapiens, UniProt P09923) (P09923 whole entry): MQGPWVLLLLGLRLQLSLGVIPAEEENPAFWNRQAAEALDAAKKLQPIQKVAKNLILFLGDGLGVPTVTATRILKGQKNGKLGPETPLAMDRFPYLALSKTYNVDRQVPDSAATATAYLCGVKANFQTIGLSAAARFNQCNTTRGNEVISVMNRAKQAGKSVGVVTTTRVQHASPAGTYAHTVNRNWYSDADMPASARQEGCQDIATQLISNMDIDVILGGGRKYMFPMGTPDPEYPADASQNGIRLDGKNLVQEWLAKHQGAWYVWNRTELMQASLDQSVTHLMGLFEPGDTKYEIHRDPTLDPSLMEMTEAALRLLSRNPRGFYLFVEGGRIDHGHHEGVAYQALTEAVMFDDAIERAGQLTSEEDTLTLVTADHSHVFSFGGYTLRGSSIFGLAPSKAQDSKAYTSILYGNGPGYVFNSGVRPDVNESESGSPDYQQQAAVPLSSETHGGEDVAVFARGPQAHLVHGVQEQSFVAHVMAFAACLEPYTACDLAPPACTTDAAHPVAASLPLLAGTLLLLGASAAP

[3] = biological target: T1, Alkaline phosphatase, tissue-nonspecific isozyme (Homo sapiens, UniProt P05186); experiment: TNAP enzyme inhibition by screening hits, dose response, selectivity assay for mouse IAP inhibitor project, biochemical, human TNAP, uHTS hits (AID 488906); assay type: functional
T1 sequence (P05186 whole entry): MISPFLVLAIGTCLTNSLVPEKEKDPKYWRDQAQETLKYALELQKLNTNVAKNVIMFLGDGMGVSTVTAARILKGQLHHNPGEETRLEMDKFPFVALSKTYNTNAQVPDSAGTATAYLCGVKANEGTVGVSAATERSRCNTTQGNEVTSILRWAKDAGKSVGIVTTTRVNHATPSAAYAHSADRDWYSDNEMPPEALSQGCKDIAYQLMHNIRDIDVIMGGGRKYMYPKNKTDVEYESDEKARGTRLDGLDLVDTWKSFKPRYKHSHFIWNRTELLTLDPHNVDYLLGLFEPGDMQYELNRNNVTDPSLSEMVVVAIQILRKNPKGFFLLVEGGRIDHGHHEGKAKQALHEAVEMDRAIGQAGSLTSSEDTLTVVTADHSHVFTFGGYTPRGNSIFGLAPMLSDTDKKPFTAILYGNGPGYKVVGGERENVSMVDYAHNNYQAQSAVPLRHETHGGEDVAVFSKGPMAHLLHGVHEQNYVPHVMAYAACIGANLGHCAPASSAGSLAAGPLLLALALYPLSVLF

[4] = biological target: Estrogen receptor beta (Homo sapiens, UniProt Q92731); experiment: ERβ–SRC-3 coactivator interaction inhibitors, confirmation, orthogonal assay, biochemical, ELISA, streptavidin-HRP readout (AID 1060)
Chain of Estrogen receptor beta (Q92731 whole entry, the tested form may be a part): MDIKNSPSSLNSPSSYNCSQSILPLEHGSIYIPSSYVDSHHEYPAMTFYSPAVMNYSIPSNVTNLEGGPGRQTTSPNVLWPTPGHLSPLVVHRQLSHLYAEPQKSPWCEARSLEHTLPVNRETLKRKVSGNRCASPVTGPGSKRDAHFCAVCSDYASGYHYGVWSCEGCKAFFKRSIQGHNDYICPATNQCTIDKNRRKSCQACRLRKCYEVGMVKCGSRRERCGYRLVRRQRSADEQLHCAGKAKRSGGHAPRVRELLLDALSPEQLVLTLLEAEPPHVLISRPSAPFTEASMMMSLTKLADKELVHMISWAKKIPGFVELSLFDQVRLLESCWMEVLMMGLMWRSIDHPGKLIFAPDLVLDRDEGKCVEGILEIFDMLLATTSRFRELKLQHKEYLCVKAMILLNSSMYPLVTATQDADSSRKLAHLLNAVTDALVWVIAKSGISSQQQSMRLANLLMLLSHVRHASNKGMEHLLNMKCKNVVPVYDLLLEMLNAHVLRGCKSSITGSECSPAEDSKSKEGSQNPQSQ

[5] = biological target: T2, Carboxy-terminal domain RNA polymerase II polypeptide A small phosphatase 1 (Homo sapiens, UniProt Q9GZU7); experiment: inhibitors of CTDSP1, concentration-response testing, biochemical assay, absorbance-based, actives from ultra-high-throughput screening (AID 540297); assay type: functional
T2 sequence (Q9GZU7 whole entry): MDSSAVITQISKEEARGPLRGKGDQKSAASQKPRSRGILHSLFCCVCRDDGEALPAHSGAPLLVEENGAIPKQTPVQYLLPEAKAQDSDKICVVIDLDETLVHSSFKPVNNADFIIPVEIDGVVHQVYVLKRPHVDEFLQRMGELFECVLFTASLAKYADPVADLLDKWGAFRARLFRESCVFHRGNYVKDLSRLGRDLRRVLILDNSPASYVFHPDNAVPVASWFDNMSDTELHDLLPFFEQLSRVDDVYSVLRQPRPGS

[6] = biological target: DNA dC->dU-editing enzyme APOBEC-3G (Homo sapiens, UniProt Q9HC16); assay type: functional;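 also: Dose-response counterscreen measuring inhibition of APOBEC3G DNA deaminase activity, run while confirming APOBEC3A inhibitors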
Chain of DNA dC->dU-editing enzyme APOBEC-3G (Q9HC16 whole entry): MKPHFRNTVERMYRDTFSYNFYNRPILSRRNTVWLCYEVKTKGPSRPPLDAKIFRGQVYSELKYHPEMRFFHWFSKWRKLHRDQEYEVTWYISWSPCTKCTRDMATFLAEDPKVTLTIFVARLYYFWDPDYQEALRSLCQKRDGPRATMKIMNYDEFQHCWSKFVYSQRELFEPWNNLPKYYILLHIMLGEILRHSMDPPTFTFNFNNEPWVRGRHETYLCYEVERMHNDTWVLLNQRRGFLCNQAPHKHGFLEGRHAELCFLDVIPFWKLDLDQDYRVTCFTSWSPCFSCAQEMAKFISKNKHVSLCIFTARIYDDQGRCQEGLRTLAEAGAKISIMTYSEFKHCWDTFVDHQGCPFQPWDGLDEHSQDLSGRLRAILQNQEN

[7] = biological target: DNA dC->dU-editing enzyme APOBEC-3A (Homo sapiens, UniProt P31941); experiment: Dose Response confirmation of small molecule APOBEC3A DNA Deaminase Inhibitors via a fluorescence-based single-stranded DNA deaminase assay. [Related pubchem assays (depositor defined):AID493011, AID493024]; assay type: functional
Chain of DNA dC->dU-editing enzyme APOBEC-3A (P31941 whole entry): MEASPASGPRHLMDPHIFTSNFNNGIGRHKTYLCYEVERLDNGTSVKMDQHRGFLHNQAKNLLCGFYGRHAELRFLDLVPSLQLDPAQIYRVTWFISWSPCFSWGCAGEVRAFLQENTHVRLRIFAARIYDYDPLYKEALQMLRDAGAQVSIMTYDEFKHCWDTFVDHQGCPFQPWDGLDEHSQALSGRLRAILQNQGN

[8] = growth suppression of beta-catenin-knockout colon cells, dose response, cell-based, HCT116, human colon tumor (AID 1045); assay type: functional;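 also: HCT116 colon tumor cells with beta catenin knocked out; cells exposed to compound for 60 hours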
[9] = test system: HEK293; experiment: NOD1 signaling inhibitors, primary screen, cell-based, luminescence, uHTS (AID 1578); assay type: functional; conditions: Homo sapiens
[10] = test system: BJ; experiment: cells; assay type: functional, cell-based; conditions: Homo sapiens
[11] = test system: BJ; experiment: cytotoxicity toward Ras-transformed BJeLR fibroblasts, dose response, cell-based, alamar blue fluorescence, cherrypicked samples (AID 2631); assay type: functional; conditions: Homo sapiens;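 also: confirmatory dose-response assay in RAS-dependent BJ fibroblasts engineered with TERT, LT and ST, with cytotoxicity read by fluorescence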
[12] = biological target: 1-acylglycerol-3-phosphate O-acyltransferase ABHD5/Perilipin-5 (Homo sapiens, UniProt Q00G26+Q8WTS1); experiment: Luminescence-based biochemical high throughput dose response assay for inhibitors of the interaction of the lipase co-activator protein, abhydrolase domain containing 5 (ABHD5) with perilipin-5 (MLDP; PLIN5) (2K validation set). [Related pubchem assays (depositor defined):AID493035, AID493241]
Chain of 1-acylglycerol-3-phosphate O-acyltransferase ABHD5/Perilipin-5 (Q00G26 whole entry, the tested form may be a part): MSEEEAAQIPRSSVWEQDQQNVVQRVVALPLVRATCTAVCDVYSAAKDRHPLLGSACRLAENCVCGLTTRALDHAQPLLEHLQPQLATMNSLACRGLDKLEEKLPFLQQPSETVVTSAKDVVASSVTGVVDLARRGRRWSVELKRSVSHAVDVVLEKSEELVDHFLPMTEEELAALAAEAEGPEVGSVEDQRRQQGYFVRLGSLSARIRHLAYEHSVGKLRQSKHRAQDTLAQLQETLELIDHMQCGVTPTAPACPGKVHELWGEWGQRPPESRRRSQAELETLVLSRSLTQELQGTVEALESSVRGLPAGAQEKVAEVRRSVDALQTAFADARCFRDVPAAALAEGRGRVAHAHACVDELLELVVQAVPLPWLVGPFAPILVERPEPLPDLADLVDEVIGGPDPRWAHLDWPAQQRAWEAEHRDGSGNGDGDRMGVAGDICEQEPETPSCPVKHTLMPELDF
Chain of 1-acylglycerol-3-phosphate O-acyltransferase ABHD5/Perilipin-5 (Q8WTS1 whole entry, the tested form may be a part): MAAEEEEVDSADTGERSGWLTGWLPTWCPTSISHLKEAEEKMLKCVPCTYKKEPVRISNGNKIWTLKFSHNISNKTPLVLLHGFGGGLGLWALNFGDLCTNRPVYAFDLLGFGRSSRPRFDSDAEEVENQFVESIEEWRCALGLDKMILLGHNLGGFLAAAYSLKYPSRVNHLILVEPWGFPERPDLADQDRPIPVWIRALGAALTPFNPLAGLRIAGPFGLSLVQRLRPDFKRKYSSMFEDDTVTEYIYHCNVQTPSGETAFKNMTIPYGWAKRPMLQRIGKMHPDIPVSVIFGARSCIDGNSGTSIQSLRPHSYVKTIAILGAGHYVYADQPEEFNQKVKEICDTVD

[13] = Luminescence Cell-Based Dose Retest to Confirm Inhibitors of Cancer Stem Cells. [Related pubchem assays (depositor defined):AID2717, AID2721]; assay type: functional; conditions: Homo sapiens
[14] = growth suppression of PTEN-null colon cells, dose response, cell-based, HCT116 PTEN knockout (AID 1047); assay type: functional;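 also: HCT116 colon tumor cells with PTEN knocked out; cells exposed to compound for 60 hours before readout; potency for loss of cell viability measured by luminescence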
[15] = test system: BJ; experiment: cytotoxicity toward BJ-TERT fibroblasts, dose response, cell-based, RAS-independent, luminescence (AID 1933); assay type: functional; conditions: Homo sapiens
[16] = cytotoxicity toward DRD oncogenic fibroblasts, dose response, cell-based, non-viral oncogenic, luminescence (AID 1934); assay type: functional; conditions: Homo sapiens
[17] = test system: HEK293; experiment: cells; assay type: functional, cell-based; conditions: Homo sapiens
[18] = test system: BJ; experiment: cytotoxicity toward BJ-TERT-LT-ST fibroblasts, dose response, cell-based, RAS-independent, luminescence (AID 1935); assay type: functional; conditions: Homo sapiens;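 also: BJ fibroblasts immortalized with TERT plus LT and ST oncogenes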
[19] = test system: HEK293; experiment: cells; assay type: functional, cell-based; conditions: Homo sapiens; remark: listed apart in the source
[20] = biological target: T3, Replicative DNA helicase DnaB (Mycobacterium tuberculosis, UniProt P9WMR3); experiment: DnaB intein splicing inhibitors, dose response, biochemical, cell-free fluorescence (AID 449749); assay type: functional
T3 sequence (P9WMR3 whole entry): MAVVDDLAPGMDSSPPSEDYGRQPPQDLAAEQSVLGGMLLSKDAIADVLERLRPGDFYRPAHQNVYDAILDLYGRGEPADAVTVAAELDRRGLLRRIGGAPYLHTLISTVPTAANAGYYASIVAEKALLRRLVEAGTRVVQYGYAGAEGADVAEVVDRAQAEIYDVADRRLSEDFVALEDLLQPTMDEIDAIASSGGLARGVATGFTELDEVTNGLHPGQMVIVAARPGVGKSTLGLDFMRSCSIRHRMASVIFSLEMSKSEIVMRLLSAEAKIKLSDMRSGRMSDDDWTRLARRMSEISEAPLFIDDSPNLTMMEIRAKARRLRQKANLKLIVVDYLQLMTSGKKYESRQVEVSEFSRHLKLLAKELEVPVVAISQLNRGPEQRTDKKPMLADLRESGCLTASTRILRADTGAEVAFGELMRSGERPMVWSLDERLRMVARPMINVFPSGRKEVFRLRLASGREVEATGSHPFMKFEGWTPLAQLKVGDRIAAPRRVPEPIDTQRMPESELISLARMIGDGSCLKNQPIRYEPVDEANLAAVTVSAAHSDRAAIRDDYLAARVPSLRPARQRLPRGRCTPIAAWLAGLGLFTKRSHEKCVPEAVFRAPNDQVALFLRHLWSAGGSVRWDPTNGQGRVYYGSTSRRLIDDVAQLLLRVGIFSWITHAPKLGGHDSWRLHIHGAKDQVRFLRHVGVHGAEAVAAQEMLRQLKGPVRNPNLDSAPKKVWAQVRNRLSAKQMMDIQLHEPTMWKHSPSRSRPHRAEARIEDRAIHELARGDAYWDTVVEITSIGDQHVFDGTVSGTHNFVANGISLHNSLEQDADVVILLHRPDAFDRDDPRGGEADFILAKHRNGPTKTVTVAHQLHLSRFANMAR

[21] = biological target: Nucleotide-binding oligomerization domain-containing protein 2 (Homo sapiens, UniProt Q9HC29); experiment: NOD2 signaling inhibitors, cell-based, luminescence, uHTS, HEK293 (AID 1566); assay type: functional
Chain of Nucleotide-binding oligomerization domain-containing protein 2 (Q9HC29 whole entry, the tested form may be a part): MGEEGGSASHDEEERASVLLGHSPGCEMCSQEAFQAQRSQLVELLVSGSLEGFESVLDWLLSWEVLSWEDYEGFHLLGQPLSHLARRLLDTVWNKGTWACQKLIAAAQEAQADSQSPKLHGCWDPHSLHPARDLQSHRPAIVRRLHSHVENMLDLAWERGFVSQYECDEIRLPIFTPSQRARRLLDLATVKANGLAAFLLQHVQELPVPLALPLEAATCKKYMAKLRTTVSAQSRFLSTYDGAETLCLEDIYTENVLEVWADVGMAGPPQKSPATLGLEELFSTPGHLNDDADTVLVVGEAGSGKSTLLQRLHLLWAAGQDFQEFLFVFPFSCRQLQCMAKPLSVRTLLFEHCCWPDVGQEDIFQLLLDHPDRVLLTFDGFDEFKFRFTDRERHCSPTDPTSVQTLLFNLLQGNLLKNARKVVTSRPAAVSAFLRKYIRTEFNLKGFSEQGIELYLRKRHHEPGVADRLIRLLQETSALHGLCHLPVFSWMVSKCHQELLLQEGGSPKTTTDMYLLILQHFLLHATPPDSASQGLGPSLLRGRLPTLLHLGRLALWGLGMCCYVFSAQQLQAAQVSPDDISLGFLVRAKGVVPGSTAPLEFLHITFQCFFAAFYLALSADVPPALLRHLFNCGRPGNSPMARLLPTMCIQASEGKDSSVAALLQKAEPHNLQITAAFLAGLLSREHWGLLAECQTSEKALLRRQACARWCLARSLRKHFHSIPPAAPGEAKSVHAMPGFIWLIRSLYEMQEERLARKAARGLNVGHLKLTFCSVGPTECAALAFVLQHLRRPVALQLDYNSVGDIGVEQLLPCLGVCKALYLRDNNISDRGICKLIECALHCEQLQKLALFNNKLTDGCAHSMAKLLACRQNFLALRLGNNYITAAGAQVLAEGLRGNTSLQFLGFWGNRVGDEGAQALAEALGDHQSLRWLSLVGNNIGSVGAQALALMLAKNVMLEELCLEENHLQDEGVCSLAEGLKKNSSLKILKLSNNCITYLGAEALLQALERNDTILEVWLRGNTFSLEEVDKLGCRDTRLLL

[22] = biological target: Perilipin-1/ABHD5 (Homo sapiens, UniProt O60240+Q8WTS1); experiment: Luminescence-based biochemical high throughput dose response assay for inhibitors of the interaction of the lipase co-activator protein, abhydrolase domain containing 5 (ABHD5) with perilipin-1 (PLIN1) (2K validation set). [Related pubchem assays (depositor defined):AID493027, AID493057]
Chain of Perilipin-1/ABHD5 (Q8WTS1 whole entry, the tested form may be a part): as the sequence (Q8WTS1 whole entry, the tested form may be a part) above
Chain of Perilipin-1/ABHD5 (O60240 whole entry, the tested form may be a part): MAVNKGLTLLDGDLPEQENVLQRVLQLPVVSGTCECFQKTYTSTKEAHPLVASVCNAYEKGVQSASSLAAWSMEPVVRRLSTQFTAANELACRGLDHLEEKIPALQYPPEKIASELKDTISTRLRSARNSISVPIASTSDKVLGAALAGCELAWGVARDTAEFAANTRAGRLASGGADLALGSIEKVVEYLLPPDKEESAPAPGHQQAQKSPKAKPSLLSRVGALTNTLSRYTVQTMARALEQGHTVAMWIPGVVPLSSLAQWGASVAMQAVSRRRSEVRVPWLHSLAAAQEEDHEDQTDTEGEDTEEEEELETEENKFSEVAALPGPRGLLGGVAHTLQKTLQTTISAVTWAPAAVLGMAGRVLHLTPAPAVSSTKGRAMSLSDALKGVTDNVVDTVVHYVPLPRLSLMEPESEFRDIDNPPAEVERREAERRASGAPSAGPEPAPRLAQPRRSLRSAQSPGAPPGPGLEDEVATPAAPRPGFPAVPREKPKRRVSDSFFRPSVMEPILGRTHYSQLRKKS

[23] = biological target: T4, Protein RecA (Mycobacterium tuberculosis, UniProt P9WHJ3); experiment: Fluorescence Cell-Free Homogeneous Dose Retest to Identify Inhibitors of RecA-Intein Splicing Activity. [Related pubchem assays (depositor defined):AID2097, AID2223, AID489010, AID492950]; assay type: functional
T4 sequence (P9WHJ3 whole entry): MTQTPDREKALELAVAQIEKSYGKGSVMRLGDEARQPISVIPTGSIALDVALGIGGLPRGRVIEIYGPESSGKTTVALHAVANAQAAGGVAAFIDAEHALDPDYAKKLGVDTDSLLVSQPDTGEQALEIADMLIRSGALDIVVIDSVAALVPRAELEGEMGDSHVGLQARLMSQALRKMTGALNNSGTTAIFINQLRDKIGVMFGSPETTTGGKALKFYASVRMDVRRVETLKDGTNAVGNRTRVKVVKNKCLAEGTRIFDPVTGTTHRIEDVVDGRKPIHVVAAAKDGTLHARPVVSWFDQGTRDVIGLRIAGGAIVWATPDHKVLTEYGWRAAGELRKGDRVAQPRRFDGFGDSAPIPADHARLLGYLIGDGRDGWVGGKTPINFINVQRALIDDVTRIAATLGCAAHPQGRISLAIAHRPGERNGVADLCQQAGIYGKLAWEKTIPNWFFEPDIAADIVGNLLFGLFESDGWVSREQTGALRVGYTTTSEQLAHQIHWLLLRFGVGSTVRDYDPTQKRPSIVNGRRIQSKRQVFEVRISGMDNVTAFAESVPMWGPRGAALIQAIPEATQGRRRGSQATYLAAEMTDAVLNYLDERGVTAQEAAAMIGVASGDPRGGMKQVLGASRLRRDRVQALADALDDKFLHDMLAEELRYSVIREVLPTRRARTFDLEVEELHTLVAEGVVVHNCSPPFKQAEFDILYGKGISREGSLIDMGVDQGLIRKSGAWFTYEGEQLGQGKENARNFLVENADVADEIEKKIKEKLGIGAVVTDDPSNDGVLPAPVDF

[24] = test system: HEK293; experiment: NOD2 signaling inhibitors in MDP-stimulated cells, cell-based, uHTS, luminescence (AID 2001); assay type: functional; conditions: Homo sapiens
[25] = microbe, parasite or virus in culture; assay type: functional; conditions: Mycobacterium tuberculosis
[26] = test system: HEK293; experiment: cells; assay type: functional, cell-based; conditions: Homo sapiens; remark: listed apart in the source
[27] = biological target: T5, Ubiquitin-conjugating enzyme E2 N (Homo sapiens, UniProt P61088); assay type: functional
T5 sequence (P61088 whole entry): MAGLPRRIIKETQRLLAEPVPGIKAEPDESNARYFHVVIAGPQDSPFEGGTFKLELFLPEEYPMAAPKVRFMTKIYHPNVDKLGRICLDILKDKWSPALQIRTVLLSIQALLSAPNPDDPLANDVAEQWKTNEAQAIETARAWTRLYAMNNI

[28] = biological target: T5, Ubiquitin-conjugating enzyme E2 N; assay type: functional; remark: listed apart in the source
[29] = biological target: T6, Bcl-2-related protein A1 (Mus musculus, UniProt Q07440); assay type: functional;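 also: confirmatory dose–response counterscreen on Bfl-1, used to check hits from a UBC13 polyubiquitin inhibitor campaign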
T6 sequence (Q07440 whole entry): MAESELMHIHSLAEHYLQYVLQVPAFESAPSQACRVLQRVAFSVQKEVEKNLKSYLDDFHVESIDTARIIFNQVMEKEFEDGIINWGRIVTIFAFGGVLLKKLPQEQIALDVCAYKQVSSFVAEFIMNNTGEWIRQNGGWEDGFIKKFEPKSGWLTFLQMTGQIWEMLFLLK

[30] = biological target: T1, Alkaline phosphatase, tissue-nonspecific isozyme; experiment: human TNAP enzyme inhibitors, SAR follow-up, biochemical, luminescent, dose response (AID 1056)
[31] = biological target: Glyceraldehyde-3-phosphate dehydrogenase (Homo sapiens, UniProt P04406)

Chain of Intestinal-type alkaline phosphatase (Mus musculus, UniProt P24822) (P24822 whole entry): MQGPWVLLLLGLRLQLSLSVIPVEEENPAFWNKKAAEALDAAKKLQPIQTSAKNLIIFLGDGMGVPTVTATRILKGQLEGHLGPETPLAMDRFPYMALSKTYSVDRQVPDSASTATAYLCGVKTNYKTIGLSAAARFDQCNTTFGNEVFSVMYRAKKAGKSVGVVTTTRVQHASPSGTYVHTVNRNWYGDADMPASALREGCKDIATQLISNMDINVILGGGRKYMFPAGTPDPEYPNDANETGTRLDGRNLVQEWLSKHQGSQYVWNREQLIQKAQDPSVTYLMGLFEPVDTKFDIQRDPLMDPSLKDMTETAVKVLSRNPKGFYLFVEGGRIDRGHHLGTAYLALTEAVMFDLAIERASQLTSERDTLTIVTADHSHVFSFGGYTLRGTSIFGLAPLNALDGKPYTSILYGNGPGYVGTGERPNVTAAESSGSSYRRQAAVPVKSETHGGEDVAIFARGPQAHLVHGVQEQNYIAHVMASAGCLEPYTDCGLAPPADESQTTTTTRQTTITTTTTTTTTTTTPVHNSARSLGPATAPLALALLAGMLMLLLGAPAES

CCOc1ccccc1N1CCN(S(=O)(=O)c2ccc3c4c(cccc24)C(=O)N3)CC1
IC50 [1]: 7.13 µM (active) | IC50 [2]: > 100 µM (inactive) | IC50 [3]: 81.2 µM (active) | IC50 [4]: 9.19 µM (not active) | IC50 [5]: 7.47 µM (active)

CCc1nc(-c2ccc(C)nc2OC)no1
IC50 [6]: 4.74 µM (active) | IC50 [7]: 3.49 µM (active)

COc1ccc(CN(CCC(c2ccccc2)c2ccc(OC(C)C)cc2)C(=O)CCl)cc1OC (stereo unspecified)
EC50 [8]: 6.08 µM (active) | EC50 [9]: 17.9 µM (active) | EC50 [10]: 4.25 µM (active) | EC50 [11]: 3.43 µM (active) | IC50 [12]: 3.57 µM (active) | AC50 [13]: 1.25 µM (active) | EC50 [14]: 6.29 µM (active) | EC50 [15]: 0.605 µM (active) | EC50 [16]: 3.74 µM (active) | IC50 [17]: 6.94 µM (active) | EC50 [18]: 4.09 µM (inconclusive) | IC50 [19]: > 20 µM (inactive) | AC50 [20]: 0.335 µM (active) | EC50 [21]: > 20 µM (inactive) | IC50 [22]: 3.17 µM (active) | EC50 [23]: 0.333 µM (active) | IC50 [24]: 13.9 µM (inactive) | CC50 [25]: 1.49 µM (active) | IC50 [26]: 10.6 µM (active)

COc1ccc(/C=N\NC(=O)c2sc(N)nc2C)cc1OC
IC50 [27]: 0.507 µM (active) | IC50 [28]: 0.548 µM (active) | IC50 [29]: > 20 µM (inactive)

CC(C)CSc1nnc(N)[nH]1
IC50 [30]: 60.8 µM (active) | IC50 [31]: > 100 µM (not active)
